Nav1.4/Nav1.7, IC50 and Wash out data for 8 compounds are collected here from patent US10344060B2 (priority 2013, dated 2019).

In one assay the target is hNav1.4 (Homo sapiens, UniProt P35499). As to the kind of experiment: cell-based. The settings on record: ratio of PX tonic IC50 values. Format: cell-based.
In a further assay the target is hNav1.7 (Homo sapiens, UniProt Q15858). As to the kind of experiment: cell-based. Format: cell-based.
The mark [1] stands for this setting: Table 12, PatchXpress, tonic block, read-out: PX hNav1.7 Tonic IC50.

Where “and” joins values, the source holds several entries; their conditions need not be identical. Equal values may be shown once. Read-outs that look alike come from different tables or passages of the source.

hNav1.7, sequence (Q15858 whole entry): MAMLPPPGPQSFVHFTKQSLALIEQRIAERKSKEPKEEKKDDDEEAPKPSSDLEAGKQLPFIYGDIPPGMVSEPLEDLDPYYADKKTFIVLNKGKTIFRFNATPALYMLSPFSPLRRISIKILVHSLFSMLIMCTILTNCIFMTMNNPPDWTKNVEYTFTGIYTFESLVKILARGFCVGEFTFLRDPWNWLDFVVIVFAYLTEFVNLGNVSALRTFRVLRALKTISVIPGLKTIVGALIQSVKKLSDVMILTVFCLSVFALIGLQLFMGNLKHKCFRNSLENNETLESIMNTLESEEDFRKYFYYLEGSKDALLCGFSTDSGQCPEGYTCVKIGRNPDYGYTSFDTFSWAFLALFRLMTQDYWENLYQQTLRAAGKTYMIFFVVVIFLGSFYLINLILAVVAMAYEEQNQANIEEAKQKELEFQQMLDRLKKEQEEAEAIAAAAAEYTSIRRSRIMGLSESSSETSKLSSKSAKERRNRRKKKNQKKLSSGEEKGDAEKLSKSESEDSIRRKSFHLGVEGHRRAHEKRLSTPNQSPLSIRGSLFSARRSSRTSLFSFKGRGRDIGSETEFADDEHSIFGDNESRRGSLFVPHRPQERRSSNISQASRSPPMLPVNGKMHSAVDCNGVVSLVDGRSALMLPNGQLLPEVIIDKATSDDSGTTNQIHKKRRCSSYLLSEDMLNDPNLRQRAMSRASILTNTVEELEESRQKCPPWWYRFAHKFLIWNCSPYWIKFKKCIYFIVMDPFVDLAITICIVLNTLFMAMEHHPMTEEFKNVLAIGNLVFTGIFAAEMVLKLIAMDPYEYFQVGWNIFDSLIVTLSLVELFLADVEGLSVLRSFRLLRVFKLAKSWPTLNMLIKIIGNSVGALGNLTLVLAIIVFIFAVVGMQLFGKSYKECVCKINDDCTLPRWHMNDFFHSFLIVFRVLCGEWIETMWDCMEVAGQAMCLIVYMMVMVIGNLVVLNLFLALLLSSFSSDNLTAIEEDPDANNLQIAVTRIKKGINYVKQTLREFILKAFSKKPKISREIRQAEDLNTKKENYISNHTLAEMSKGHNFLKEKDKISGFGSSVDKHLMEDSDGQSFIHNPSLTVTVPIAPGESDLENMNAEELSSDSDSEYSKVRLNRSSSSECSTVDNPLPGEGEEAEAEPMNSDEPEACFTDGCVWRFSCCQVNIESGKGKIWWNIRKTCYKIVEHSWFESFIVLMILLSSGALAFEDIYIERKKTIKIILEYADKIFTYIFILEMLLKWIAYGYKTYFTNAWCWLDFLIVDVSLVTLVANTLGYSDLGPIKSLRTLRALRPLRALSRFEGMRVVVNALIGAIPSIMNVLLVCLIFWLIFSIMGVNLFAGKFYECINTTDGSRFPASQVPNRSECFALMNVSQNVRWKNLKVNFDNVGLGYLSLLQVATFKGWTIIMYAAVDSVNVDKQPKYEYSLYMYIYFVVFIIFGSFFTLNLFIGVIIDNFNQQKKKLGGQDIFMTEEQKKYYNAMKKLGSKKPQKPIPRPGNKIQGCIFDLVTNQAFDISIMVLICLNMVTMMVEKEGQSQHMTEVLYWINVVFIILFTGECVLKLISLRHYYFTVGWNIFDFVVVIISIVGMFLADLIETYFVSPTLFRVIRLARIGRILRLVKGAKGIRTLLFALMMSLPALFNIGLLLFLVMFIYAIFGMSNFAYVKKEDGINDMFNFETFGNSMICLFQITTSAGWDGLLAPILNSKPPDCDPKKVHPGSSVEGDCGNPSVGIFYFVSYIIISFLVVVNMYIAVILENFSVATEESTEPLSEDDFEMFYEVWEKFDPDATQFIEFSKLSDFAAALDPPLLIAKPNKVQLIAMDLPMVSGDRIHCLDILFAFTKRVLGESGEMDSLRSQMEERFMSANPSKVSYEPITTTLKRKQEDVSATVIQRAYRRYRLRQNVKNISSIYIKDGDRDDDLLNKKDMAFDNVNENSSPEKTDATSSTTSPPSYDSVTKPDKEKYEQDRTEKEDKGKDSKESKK
hNav1.4, sequence (P35499 whole entry): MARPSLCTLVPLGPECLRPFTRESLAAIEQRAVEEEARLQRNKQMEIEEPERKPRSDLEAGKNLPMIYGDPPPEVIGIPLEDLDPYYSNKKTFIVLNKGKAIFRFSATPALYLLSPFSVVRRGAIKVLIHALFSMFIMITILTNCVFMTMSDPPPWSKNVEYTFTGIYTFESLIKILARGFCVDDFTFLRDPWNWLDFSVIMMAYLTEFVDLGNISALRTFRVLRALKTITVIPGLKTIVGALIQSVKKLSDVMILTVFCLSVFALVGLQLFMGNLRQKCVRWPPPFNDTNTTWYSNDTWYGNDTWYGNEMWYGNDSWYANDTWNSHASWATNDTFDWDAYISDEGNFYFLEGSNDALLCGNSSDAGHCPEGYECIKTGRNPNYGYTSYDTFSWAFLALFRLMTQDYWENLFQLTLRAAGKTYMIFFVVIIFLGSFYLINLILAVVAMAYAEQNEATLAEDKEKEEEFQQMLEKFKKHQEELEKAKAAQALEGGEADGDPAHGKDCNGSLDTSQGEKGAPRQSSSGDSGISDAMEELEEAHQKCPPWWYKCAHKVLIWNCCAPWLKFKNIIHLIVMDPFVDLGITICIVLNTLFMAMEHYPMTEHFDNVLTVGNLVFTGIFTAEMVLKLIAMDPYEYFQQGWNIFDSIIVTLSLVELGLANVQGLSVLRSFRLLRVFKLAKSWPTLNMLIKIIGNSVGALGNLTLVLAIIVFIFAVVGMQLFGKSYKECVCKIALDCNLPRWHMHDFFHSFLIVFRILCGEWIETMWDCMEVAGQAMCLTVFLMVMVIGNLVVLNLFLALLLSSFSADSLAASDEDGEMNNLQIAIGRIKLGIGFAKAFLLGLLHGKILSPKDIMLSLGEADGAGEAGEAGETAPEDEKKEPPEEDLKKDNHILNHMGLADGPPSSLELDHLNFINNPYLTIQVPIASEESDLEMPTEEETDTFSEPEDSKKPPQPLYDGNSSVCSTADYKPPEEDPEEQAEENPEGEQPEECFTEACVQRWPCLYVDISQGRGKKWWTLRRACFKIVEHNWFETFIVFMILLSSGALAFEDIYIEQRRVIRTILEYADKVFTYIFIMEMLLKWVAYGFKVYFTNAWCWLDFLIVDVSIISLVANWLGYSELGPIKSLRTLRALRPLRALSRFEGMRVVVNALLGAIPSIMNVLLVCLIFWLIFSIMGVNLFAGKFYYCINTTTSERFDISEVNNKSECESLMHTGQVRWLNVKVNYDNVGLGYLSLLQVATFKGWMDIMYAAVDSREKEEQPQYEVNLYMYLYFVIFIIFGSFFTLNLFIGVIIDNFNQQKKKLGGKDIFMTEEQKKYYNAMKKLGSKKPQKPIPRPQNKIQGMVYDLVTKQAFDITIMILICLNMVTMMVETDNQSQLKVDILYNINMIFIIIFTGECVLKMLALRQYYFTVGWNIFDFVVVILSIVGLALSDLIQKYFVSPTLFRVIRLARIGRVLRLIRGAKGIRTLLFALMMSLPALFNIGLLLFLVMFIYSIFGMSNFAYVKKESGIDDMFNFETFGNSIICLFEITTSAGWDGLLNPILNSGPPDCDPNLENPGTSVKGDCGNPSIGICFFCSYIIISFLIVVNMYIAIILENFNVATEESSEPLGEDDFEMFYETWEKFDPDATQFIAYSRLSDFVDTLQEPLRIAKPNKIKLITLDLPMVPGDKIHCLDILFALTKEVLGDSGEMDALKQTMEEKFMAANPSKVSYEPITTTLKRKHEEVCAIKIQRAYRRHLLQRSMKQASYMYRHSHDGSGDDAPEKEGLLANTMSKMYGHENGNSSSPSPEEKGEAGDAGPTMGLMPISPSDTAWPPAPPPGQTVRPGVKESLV

As for `CCCC[C@@H]1NC(=O)[C@H](Cc2c[nH]c3ccccc23)NC(=O)[C@H](CCCCN)NC(=O)[C@H](CCC(N)=O)NC(=O)[C@@H](NC(=O)[C@H](Cc2ccc(O)cc2)NC(=O)[C@@H](N)Cc2cn(CCOCCOCCOCCOCCOCCOCCOCCOCCOCCOCCOCCOCCOCCOCCOCCOCCOCCOCCOCCOCCOCCOCCOCCNC(=O)c3cc(CNC(=O)CSCc4ccccc4)cc(C(=O)NCCOCCOCCOCCOCCOCCOCCOCCOCCOCCOCCOCCOCCOCCOCCOCCOCCOCCOCCOCCOCCOCCOCCOCCn4cc(C[C@H](N)C(=O)N[C@@H](Cc5ccc(O)cc5)C(=O)N[C@H]5CSSC[C@@H]6NC(=O)[C@@H]7CSSC[C@@H](C(=O)N[C@@H](CCCNC(=N)N)C(=O)N[C@@H](CCCCN)C(=O)N[C@H](C(=O)N[C@H](C(N)=O)[C@@H](C)CC)[C@@H](C)CC)NC(=O)[C@H](Cc8c[nH]c9ccccc89)NC(=O)[C@H](CC(C)C)NC(=O)[C@H](CCCCN)NC(=O)[C@H](CSSC[C@H](NC(=O)[C@H]([C@@H](C)O)NC(=O)[C@H](Cc8c[nH]c9ccccc89)NC(=O)[C@H](CCCC)NC(=O)[C@H](Cc8c[nH]c9ccccc89)NC(=O)[C@H](CCCCN)NC(=O)[C@H](CCC(N)=O)NC5=O)C(=O)N[C@@H](CC(=O)O)C(=O)N[C@@H](CO)C(=O)N[C@@H](CCCCN)C(=O)N[C@@H](CCCNC(=N)N)C(=O)N[C@@H](C)C(=O)N7)NC(=O)[C@H](CCCNC(=N)N)NC(=O)[C@H](CC(C)C)NC(=O)CNC(=O)[C@H](CCC(=O)O)NC6=O)nn4)c3)nn2)CSSC[C@@H]2NC(=O)[C@@H]3CSSC[C@@H](C(=O)N[C@@H](CCCNC(=N)N)C(=O)N[C@@H](CCCCN)C(=O)N[C@H](C(=O)N[C@H](C(N)=O)[C@@H](C)CC)[C@@H](C)CC)NC(=O)[C@H](Cc4c[nH]c5ccccc45)NC(=O)[C@H](CC(C)C)NC(=O)[C@H](CCCCN)NC(=O)[C@H](CSSC[C@H](NC(=O)[C@H]([C@@H](C)O)NC(=O)[C@H](Cc4c[nH]c5ccccc45)NC1=O)C(=O)N[C@@H](CC(=O)O)C(=O)N[C@@H](CO)C(=O)N[C@@H](CCCCN)C(=O)N[C@@H](CCCNC(=N)N)C(=O)N[C@@H](C)C(=O)N3)NC(=O)[C@H](CCCNC(=N)N)NC(=O)[C@H](CC(C)C)NC(=O)CNC(=O)[C@H](CCC(=O)O)NC2=O` [Homodimeric Conjugate No. 2, Bis-{Atz(PEG23*)-[Nle6]JzTx-V(1-29)}-5-((2-(benzylthio)acetamido)methyl)isophthalamide], at hNav1.4 (Table 13), the Nav1.4/Nav1.7 is 5 and 3.
Consider `CCCC[C@@H]1NC(=O)[C@H](Cc2c[nH]c3ccccc23)NC(=O)[C@H](CCCCN)NC(=O)[C@H](CCC(N)=O)NC(=O)[C@@H](NC(=O)[C@H](Cc2ccc(O)cc2)NC(=O)[C@@H](N)Cc2cn(CCOCCOCCOCCOCCOCCOCCOCCOCCOCCOCCOCCOCCOCCOCCOCCOCCOCCOCCOCCOCCOCCOCCOCCNC(=O)c3cc(CN)cc(C(=O)NCCOCCOCCOCCOCCOCCOCCOCCOCCOCCOCCOCCOCCOCCOCCOCCOCCOCCOCCOCCOCCOCCOCCOCCn4cc(C[C@H](N)C(=O)N[C@@H](Cc5ccc(O)cc5)C(=O)N[C@H]5CSSC[C@@H]6NC(=O)[C@@H]7CSSC[C@@H](C(=O)N[C@@H](CCCNC(=N)N)C(=O)N[C@@H](CCCCN)C(=O)N[C@@H](CCC(=O)O)C(=O)N[C@H](C(N)=O)[C@@H](C)CC)NC(=O)[C@H](Cc8c[nH]c9ccccc89)NC(=O)[C@H](CC(C)C)NC(=O)[C@H](CCCCN)NC(=O)[C@H](CSSC[C@H](NC(=O)[C@H]([C@@H](C)O)NC(=O)[C@H](Cc8c[nH]c9ccccc89)NC(=O)[C@H](CCCC)NC(=O)[C@H](Cc8c[nH]c9ccccc89)NC(=O)[C@H](CCCCN)NC(=O)[C@H](CCC(N)=O)NC5=O)C(=O)N[C@@H](CC(=O)O)C(=O)N[C@@H](CO)C(=O)N[C@@H](CCCCN)C(=O)N[C@@H](CCCNC(=N)N)C(=O)N[C@@H](C)C(=O)N7)NC(=O)[C@H](CCCNC(=N)N)NC(=O)[C@H](CC(C)C)NC(=O)CNC(=O)[C@H](CCC(=O)O)NC6=O)nn4)c3)nn2)CSSC[C@@H]2NC(=O)[C@@H]3CSSC[C@@H](C(=O)N[C@@H](CCCNC(=N)N)C(=O)N[C@@H](CCCCN)C(=O)N[C@@H](CCC(=O)O)C(=O)N[C@H](C(N)=O)[C@@H](C)CC)NC(=O)[C@H](Cc4c[nH]c5ccccc45)NC(=O)[C@H](CC(C)C)NC(=O)[C@H](CCCCN)NC(=O)[C@H](CSSC[C@H](NC(=O)[C@H]([C@@H](C)O)NC(=O)[C@H](Cc4c[nH]c5ccccc45)NC1=O)C(=O)N[C@@H](CC(=O)O)C(=O)N[C@@H](CO)C(=O)N[C@@H](CCCCN)C(=O)N[C@@H](CCCNC(=N)N)C(=O)N[C@@H](C)C(=O)N3)NC(=O)[C@H](CCCNC(=N)N)NC(=O)[C@H](CC(C)C)NC(=O)CNC(=O)[C@H](CCC(=O)O)NC2=O` [Homodimeric Conjugate No. 7], for which, at hNav1.4 (Table 13), the Nav1.4/Nav1.7 worked out at 94.
As for `C#CC[C@H](N)C(=O)NCCCC[C@@H]1NC(=O)[C@H](CCCNC(=N)N)NC(=O)[C@H](CCCCN)NC(=O)[C@H](CO)NC(=O)[C@H](CC(=O)O)NC(=O)[C@@H]2CSSC[C@@H]3NC(=O)[C@H](CCC(=O)O)NC(=O)[C@H](CC(C)C)NC(=O)CNC(=O)[C@H](CCC(=O)O)NC(=O)[C@H](CSSC[C@H](NC(=O)[C@H](Cc4ccc(O)cc4)NC(=O)[C@@H](N)CC#N)C(=O)N[C@@H](CCC(N)=O)C(=O)N[C@@H](CCCCN)C(=O)N[C@@H](Cc4c[nH]c5ccccc45)C(=O)N[C@@H](CCCC)C(=O)N[C@@H](Cc4c[nH]c5ccccc45)C(=O)N[C@@H]([C@@H](C)O)C(=O)N2)NC(=O)[C@H](CSSC[C@@H](C(=O)N[C@@H](CCCNC(=N)N)C(=O)N[C@@H](CCCCN)C(=O)N[C@@H](Cc2ccc(O)cc2)C(=O)N[C@H](C(N)=O)[C@@H](C)CC)NC(=O)[C@H](Cc2c[nH]c4ccccc24)NC(=O)[C@H](CC(C)C)NC(=O)[C@H](CCCCN)NC3=O)NC1=O` [compound 394], the Nav1.4/Nav1.7 on hNav1.4 (Table 12) was determined as 19130.
For the compound `C#CC[C@@H]1NC(=O)[C@@H]2CSSC[C@H](NC(=O)[C@H](Cc3ccc(O)cc3)NC(=O)[C@@H](N)CC#N)C(=O)N[C@@H](CCC(N)=O)C(=O)N[C@@H](CCCCN)C(=O)N[C@@H](Cc3c[nH]c4ccccc34)C(=O)N[C@@H](CCCC)C(=O)N[C@@H](Cc3c[nH]c4ccccc34)C(=O)N[C@@H]([C@@H](C)O)C(=O)N[C@H]3CSSC[C@H](NC(=O)[C@H](CCCNC(=N)N)NC(=O)[C@H](CC(C)C)NC(=O)CNC1=O)C(=O)N[C@@H](CCCCN)C(=O)N[C@@H](CC(C)C)C(=O)N[C@@H](Cc1c[nH]c4c(Br)cccc14)C(=O)N[C@H](C(=O)N[C@@H](CCCNC(=N)N)C(=O)N[C@@H](CCCCN)C(=O)N[C@@H](CCC(=O)O)C(=O)N[C@H](C(N)=O)[C@@H](C)CC)CSSC[C@H](NC(=O)[C@H](C)NC(=O)[C@H](CCCNC(=N)N)NC(=O)[C@H](CCCCN)NC(=O)[C@H](CO)NC(=O)[C@H](CC(=O)O)NC3=O)C(=O)N2` [compound 875], the IC50 at hNav1.7 (setting [1]) was 25.3 nM.
In the case of `C#CC[C@@H]1NC(=O)[C@H](CO)NC(=O)[C@H](CC(=O)O)NC(=O)[C@@H]2CSSC[C@@H]3NC(=O)[C@H](CCCNC(=N)N)NC(=O)[C@H](CC(C)C)NC(=O)CNC(=O)[C@H](CCC(=O)O)NC(=O)[C@H](CSSC[C@H](NC(=O)[C@@H](N)Cc4ccc(O)cc4)C(=O)N[C@@H](CCC(N)=O)C(=O)N[C@@H](CCCCN)C(=O)N[C@@H](Cc4c[nH]c5ccccc45)C(=O)N[C@@H](CCCC)C(=O)N[C@@H](Cc4c[nH]c5ccccc45)C(=O)N[C@@H]([C@@H](C)O)C(=O)N2)NC(=O)[C@H](CSSC[C@@H](C(=O)N[C@@H](CCCNC(=N)N)C(=O)N[C@@H](CCCCN)C(=O)N[C@@H](CCC(=O)O)C(=O)N[C@H](C(N)=O)[C@@H](C)CC)NC(=O)[C@H](Cc2c[nH]c4ccccc24)NC(=O)[C@H](CC(C)C)NC(=O)[C@H](CCCCN)NC3=O)NC(=O)[C@H](C)NC(=O)[C@H](CCCNC(=N)N)NC1=O` [compound 879], at hNav1.7 (setting [1]), the IC50 was determined as 1.35 nM.
Take `CCCC[C@@H]1NC(=O)[C@H](Cc2c[nH]c3ccccc23)NC(=O)[C@H](CCCCN)NC(=O)[C@H](CCC(N)=O)NC(=O)[C@@H](NC(=O)[C@H](Cc2ccc(O)cc2)NC(=O)[C@@H](N)CC#N)CSSC[C@@H]2NC(=O)[C@@H]3CSSC[C@@H](C(=O)N[C@@H](CCCNC(=N)N)C(=O)N[C@@H](CCCCN)C(=O)N[C@@H](CCC(=O)O)C(=O)N[C@H](C(N)=O)[C@@H](C)CC)NC(=O)[C@H](Cc4c[nH]c5ccccc45)NC(=O)[C@H](CC(C)C)NC(=O)[C@H](CCCCN)NC(=O)[C@H](CSSC[C@H](NC(=O)[C@H]([C@@H](C)O)NC(=O)[C@H](Cc4c[nH]c5ccccc45)NC1=O)C(=O)N[C@@H](CC(=O)O)C(=O)N[C@@H](CO)C(=O)N[C@@H](CCCCN)C(=O)N[C@@H](CCCNC(=N)N)C(=O)N[C@@H](C)C(=O)N3)NC(=O)[C@H](CCCNC(=N)N)NC(=O)[C@H](CC(C)C)NC(=O)CNC(=O)[C@H](Cc1cn(CCCCCCCCCCCCCCC(=O)O)nn1)NC2=O` [compound 895]: the IC50 on hNav1.7 (read-out: PX hNav1.7 Tonic IC50) turned out to be 260 nM.
Turning to `C#CC[C@@H]1NC(=O)[C@@H]2CSSC[C@H](NC(=O)[C@@H](N)CC#N)C(=O)N[C@@H](CCC(N)=O)C(=O)N[C@@H](CCCCN)C(=O)N[C@@H](Cc3c[nH]c4ccccc34)C(=O)N[C@@H](CCCC)C(=O)N[C@@H](Cc3c[nH]c4ccccc34)C(=O)N[C@@H]([C@@H](C)O)C(=O)N[C@H]3CSSC[C@H](NC(=O)[C@H](CCCNC(=N)N)NC(=O)[C@H](CC(C)C)NC(=O)CNC1=O)C(=O)N[C@@H](CCC(N)=O)C(=O)N[C@@H](CC(C)C)C(=O)N[C@@H](Cc1c[nH]c4ccccc14)C(=O)N[C@H](C(=O)N[C@@H](CCCNC(=N)N)C(=O)N[C@@H](CCCCN)C(=O)N[C@@H](CCC(=O)O)C(=O)N[C@H](C(N)=O)[C@@H](C)CC)CSSC[C@H](NC(=O)[C@H](C)NC(=O)[C@H](CCCNC(=N)N)NC(=O)[C@H](CCCCN)NC(=O)[C@H](CO)NC(=O)[C@H](CC(=O)O)NC3=O)C(=O)N2` [compound 1680], the IC50 at hNav1.7 (setting [1]) came to 47.6 nM.
For “[Phe6,Atz(500 Da EtO-PEG*-[Phe6,Atz13*]GpTx-1(1-34)1)13]GpTx-1(1-34) [Homodimeric Conjugate No. 4]”, the Wash out entry at hNav1.7 is listed as “Yes”. At hNav1.7 (read-out: Nav1.7 PX IC50), the 50% inhibitory concentration (IC50) was 19 nM.
